Data on four compounds can be found in US5208326A, “8-hydroxy-2H-dibenz(b,f)azepin-2-one dyes” (Miles Inc., priority 1991, dated 1993).

Usually pKa stands for the negative logarithm of the acid dissociation constant. A low value points to a stronger acid or weaker base. The term Km denotes the substrate concentration at which the rate is half of its maximum.

The nature of series [1]: pKa of the acid/base indicator dye. It counts as physicochemical.
The test system of another series is β-galactosidase. The series is described as follows: Substrate evaluation: hydrolysis by β-galactosidase in solution. It counts as biochemical.
Setting [2] is: 50 mM phosphate buffer pH 7.4 (containing no magnesium).

`O=c1ccc2nc3ccc(O)cc3ccc-2c1` [Compound 1, 8-Hydroxy-2H-dibenz[b,f]azepin-2-one]: in series [1], the pKa is recorded as 6.34.

In series [1], `O=C1C=CC2=Nc3ccc(O)cc3CCC2=C1` [Compound 2, 8-Hydroxy-10,11-dihydro-2H-dibenz[b,f]azepin-2-one] had a pKa of 6.95. Regarding `O=c1ccc2nc3ccc(O[C@@H]4O[C@H](CO)[C@H](O)[C@H](O)[C@H]4O)cc3ccc-2c1` [Compound 3, 8-(β-D-galactopyranosyloxy)-2H-dibenz[b,f]azepin-2-one], the “substrate for β-galactosidase (in words)” value in the series with β-galactosidase is listed as “substrate for β-galactosidase”. Regarding `O=C1C=CC2=Nc3ccc(O[C@@H]4O[C@H](CO)[C@H](O)[C@H](O)[C@H]4O)cc3CCC2=C1` [Compound 4, 8-(β-D-galactopyranosyloxy)-10,11-dihydro-2H-dibenz [b,f]azepin-2-one], the “substrate for β-galactosidase (in words)” value with β-galactosidase is on record as “substrate for β-galactosidase”. In addition, in the series with β-galactosidase (setting [2]), the Km came out at 96 µM and the “rate (Kcat) of hydrolysis to give 2” value is listed as 7.07×10^3 mol. min^-1 /mol. active site.
